| Compound | melting point [°C] |
| --- | --- |
| CCCOC(=O)C1=C(C)NC(C)=C(C(=O)OCCC)C1c1ccco1 | 112 |
| Cc1ccccc1-n1c(C)nc2ccccc2c1=O | 120 |
| OC(c1ccccc1)(c1ccccc1)[C@@H](c1ccccc1)N1CCCCC1 | 158 |
| CC(=O)N(c1ccccc1)c1ccccc1 | 103 |
| O=C(c1ccccc1)N(O)c1ccccc1 | 119 to 123 |
| CCOC=C(C#N)S(=O)(=O)c1ccc(Cl)cc1 | 121 to 124 |
| Cc1nc(Nc2ncc(C(=O)Nc3c(C)cccc3Cl)s2)cc(N2CCN(CCO)CC2)n1 | 283 |
| CCC1CN2CCc3c([nH]c4cccc(OC)c34)C2CC1C(=COC)C(=O)OC (stereo not given) | 104 |
| COc1ccc2ccccc2c1Br | 80 |
| CSC(C)(C)C=NO | 21 |
| Cc1ccc(-c2ccccc2)cc1N | 58 to 60 |
| O=C(O)c1c(Cl)ccc2cc(Cl)cnc12 | 274 |
| Nc1nsc(-c2ccc(Cl)cc2)n1 | 201 to 202 |
| O=C1NC(=S)NC(=O)C1=NNc1cccc([N+](=O)[O-])c1 | 330 |
| NNC(=O)c1ccc(OCc2ccccc2)cc1 | 140 |
| CC(=O)O[C@@H]1CC[C@@]2(C)C(CC[C@@H]3[C@@H]2CC[C@@]2(C)[C@H]3CC[C@]2(O)/C=C/c2ccccc2)C1 (stereo not given in full) | 160 to 164 |
| O=C1C=C(Nc2ccccc2)C(=O)c2ccccc21 | 193 |
| CC(C)(C)C(C)(C)O | 17 |
| NC(=O)NN=CC(=O)c1ccc(C(=O)C=NNC(N)=O)cc1 | 246 |
| O=C(O)c1ccc(-c2ccc(O)cc2)cc1 | 316 |
| O=C(NC(=O)c1c(F)cccc1F)Nc1cc(Cl)c(F)c(Cl)c1F | 225 |

| Compound | melting point [°C] |
| --- | --- |
| NC12c3ccccc3C(c3ccccc31)c1ccccc12 | 220 |
| C=C1C(=O)C23C4CC5C(C)(C)CCC(OC(C)=O)C5(C(=O)O4)C2C(OC(C)=O)CC1C3OC(C)=O (stereo not given) | 230 |
| Clc1cc2c(c(Cl)c1Cl)Oc1c(cc(Cl)c(Cl)c1Cl)O2 | 243 |
| COC(=O)c1ccc(S(=O)(=O)c2ccc(C(=O)OC)cc2)cc1 | 193 to 200 |
| C=CC(C)(O)CCC1C(C)(O)CCC2C(C)(C)CCCC21C (stereo not given) | 97 |
| Oc1ccccc1CCc1ccccc1 | 85 |
| C=CCC#N | -87 |
| NC(Cn1ccc(=O)c(O)c1)C(=O)O (stereo not given) | 228 |
| COC(=O)c1c(C)cc(OC(=O)c2c(C)cc(O)c(C=O)c2O)c(C)c1O | 195 |
| CCOC(=O)C(C#N)=C(N)c1cc2cc(Br)cc(Br)c2oc1=O | 258 to 260 |
| c1ccc(C2CCc3ccccc3O2)cc1 (stereo not given) | 46.3 |
| CN(c1ccccc1)c1ccccc1 | -7.6 |
| O=Cc1cccc2c(Br)cccc12 | 105 |
| NC(=S)c1c(Cl)cc(C(F)(F)F)cc1Cl | 176 to 178 |
| c1csc(P(c2cccs2)c2cccs2)c1 | 29 to 30 |
| CCN(CC)C(=O)Cl | -32 |
| OC1CCCCC1Cl (stereo not given) | 29 |
| O=C(O)C1Cc2cc3c(cc21)OCO3 (stereo not given) | 150 |
| CC(=C(CCOC(=O)c1ccccc1)SSC(CCOC(=O)c1ccccc1)=C(C)N(C=O)Cc1cnc(C)nc1N)N(C=O)Cc1cnc(C)nc1N | 146 |
| O=Cc1ccccc1Cn1cncn1 | 59 |
| C#CC1(O)CCC2C3CCc4cc(OC5CCCC5)ccc4C3CCC21C (stereo not given) | 108 |

| Compound | melting point [°C] |
| --- | --- |
| N#CC(=S)Nc1ccccc1 | 75 to 80 |
| C1=CCCC=C1 | -89 |
| CC(=O)C(c1ccccc1)c1ccc(C(F)(F)F)cc1[N+](=O)[O-] (stereo not given) | 91 |
| CCC=C(c1ccccc1)c1ccccc1 | -1 |
| CC(=O)C1(O)CCC2C3C=C(C)C4=CC(=O)CCC4(C)C3CCC21C (stereo not given) | 219 |
| O=S(=O)(Cl)c1ccccc1Cl | 27 |
| Oc1ccccc1N=CC=Nc1ccccc1O | 201 to 205 |
| CCCCc1cccc2ccccc12 | -19.8 |
| O=c1c(Cl)c(Cl)cnn1Cc1c(F)cccc1Cl | 137 to 138 |
| OC(Cn1cncn1)(c1ccc(F)cc1)c1ccccc1F (stereo not given) | 130 |
| Cn1cc(C(=O)Nc2ccc(F)cc2-c2ccc(Cl)c(Cl)c2)c(C(F)F)n1 | 147 |
| CC(C)C(N)CC(=O)O (stereo not given) | 206 to 209 |
| CC(=O)c1nn2c(C(F)(F)F)nnc2s1 | 200 |
| CCCCNCC(O)c1ccc(O)cc1 (stereo not given) | 124 |
| ClCC=Cc1ccccc1 | -19 |
| CCCc1ccc(-c2ccccc2)cc1 | 15 to 17 |
| Nc1ccc(C(=O)NCCC(=O)O)cc1 | 152 |
| N#Cc1cn(-c2ccccc2Cl)c(=O)[nH]c1=O | 255 to 258 |
| CCCCCCCCCCCC(=O)CCCC | 37 |
| Cc1ccc2c(c1[N+](=O)[O-])C(=O)c1c(Cl)c(Cl)c(Cl)c(Cl)c1C2=O | 262 |
| O=C(O)c1cccc(F)c1O | 147 |

| Compound | melting point [°C] |
| --- | --- |
| O=S(=O)(Cl)c1ccc(Br)cc1C(F)(F)F | 62 to 63 |
| CC(=O)OCC1OC(n2cnc3c(=O)[nH]c(N)nc32)C(OC(C)=O)C1OC(C)=O (stereo not given) | 224 to 233 |
| Nc1c(Cl)cc(C(=O)O)cc1Cl | 292 |
| CC(C)=C/C=C/C=N/Nc1ccc([N+](=O)[O-])cc1[N+](=O)[O-] | 205 to 206 |
| Brc1ccc(Oc2c(Br)cccc2Br)cc1 | 77 to 77.5 |
| O=C(CCl)Nc1ccccc1Cl | 70 to 73 |
| FC(F)(F)C1(F)C(F)(F)C(F)(F)C(F)(F)C2(F)C(F)(F)C(F)(F)C(F)(F)C(F)(F)C12F (stereo not given) | -70 |
| CCOC(=O)c1sc2sc(C(=O)OCC)c(NC(=O)c3ccccc3)c2c1NC(=O)c1ccccc1 | 286 |
| O=C(Nc1ccc(Br)cc1)C(C(F)(F)F)C(F)(F)F | 186 |
| O=C1CCC(c2ccccc2)c2ccccc21 (stereo not given) | 73 to 76 |
| CC(=O)OC1C(c2ccc(=O)oc2)C2(C)CCC3C(CCC4(O)CC(O)CCC34C)C23OC13 (stereo not given) | 260 |
| Cc1c(Cl)c(=O)oc2cc(OP(=O)(OCCCl)OCCCl)ccc12 | 91 |
| CCC(F)(F)C(=O)O | 8 |
| BrCc1cccc(-c2ccsc2)c1 | 70 |
| COC(=O)c1cc(OCc2cc(COc3cc(C(=O)OC)cc(C(=O)OC)c3)cc(COc3cc(C(=O)OC)cc(C(=O)OC)c3)c2)cc(C(=O)OC)c1 | 188 |
| O=C(CI)NCCNc1cccc2c(S(=O)(=O)O)cccc12 | 300 |
| O=[N+]([O-])c1cc2c3ccccc3ccc2c2ccccc12 | 210 to 213 |
| C[Si](C)(C1C=Cc2ccccc21)C1C=Cc2ccccc21 (stereo not given) | 85 to 87 |
| C[C@H](CCC(=O)O)[C@H]1CC[C@H]2[C@@H]3CC[C@H]4CC(=O)CC[C@]4(C)[C@H]3CC[C@]12C | 189 |
| COc1ccccc1-c1ccc(/C=C2\N=C(c3ccccc3)OC2=O)o1 | 170 |
| N#Cc1ccc(F)c(F)c1 | 50 |

The next lines start with the values.

| melting point [°C] | Compound |
| --- | --- |
| 370 | Cn1cnc2[nH]c(N)nc(=O)c21 |
| 35 | COc1cc(Br)cc(F)c1F |
| 227 | CC1(C)C2CCC13CS(=O)(=O)N=C3C2 (stereo not given) |
| 165 | NNc1ncccc1[N+](=O)[O-] |
| 36 | COc1ccc2sc(C)nc2c1 |
| 189 | NC(=O)c1cnccn1 |
| 58 | COc1ccc(Cl)cc1N=C=S |
| 118 | CC12CCC(CC1=NO)C2(C)C (stereo not given) |
| 267 to 270 | Cn1cc([N+](=O)[O-])c(=O)[nH]c1=O |
| 163 | Oc1cncc(F)c1 |
| 301 | Cn1c(=O)c(C2=NNC(=O)C2=NNc2nccs2)c(O)c2ccccc21 |
| 39 | BrCCOc1ccccc1 |
| 7.7 | Cc1ccc(C)[nH]1 |
| 300 | Oc1cc(O)ncn1 |
| 200 | CN(C)c1ccc(/C=N/n2c(S)nnc2C(F)(F)F)cc1 |
| 102 | CCCOc1ccc([N+](=O)[O-])cc1NC(C)=O |
| 42 to 44 | CCCCCc1ccc(S(=O)(=O)Cl)cc1 |
| 206 | NNc1ccc([N+](=O)[O-])cn1 |
| 50 to 51 | FC(F)(F)c1ccnc(N2CCCNCC2)n1 |
| 199 to 201 | Cc1nn(-c2ccccc2)c(C)c1C(=O)O |
| 118 to 119 | Cc1ccc(C)c(C(=O)CC(C)(C)C(=O)O)c1 |

| melting point [°C] | Compound |
| --- | --- |
| 71 | Nc1cccc(Cl)n1 |
| 118 to 120 | Cc1n[nH]c(C)c1CCBr |
| 88 to 93 | COc1ccc(C=CC(=O)c2ccc(F)cc2)cc1OC |
| 124 | CC(C)(C)NCC(O)COc1cccc2c1CC(O)C(O)C2 (stereo not given) |
| 1 | CC(C)OC(=O)[C@H](C)O |
| 40 | CCOc1ccccc1C(C)=O |
| 179 | COc1cc(C(N)=O)cc(OC)c1OC |
| 222 to 225 | N#Cc1ccc[nH]c1=O |
| 95 to 101 | COc1ccc(Oc2ncccc2[N+](=O)[O-])cc1 |
| 120 to 122 | C/C=C/C1Nn2c(nnc2-c2cccnc2)S1 (stereo not given) |
| 285 | Cc1cc(=O)[nH]c2c(/N=N/c3ccc(O)cc3)c(N)nn12 |
| 129 | CC(C)c1ncc[nH]1 |
| 131 | CC(=O)Oc1ccc2ccc(OC(C)=O)cc2c1 |
| 177 | CCOc1ccc(-c2nnc3n2NC(c2ccccc2O)S3)cc1 (stereo not given) |
| 104 to 106 | C/C(=N\O)c1ccc2c(c1)CCCC2 |
| 219 | CC(C)(C)C1=CC(=NO)C=C(C(C)(C)C)C1=O |
| 125 to 134 | CC1CCc2cc3c(cc2N1)CCC(C)N3 (stereo not given) |
| 61 | COc1cc(F)ccc1C=O |
| 76 | O=C1Cc2cc([N+](=O)[O-])ccc21 |
| 134 to 136 | O=C(O)c1cccc(N2CCCC2)n1 |

Reference: a melting point compilation (Tetko et al.)
